The experiment deals with subjects with insomnia related to major depressive disorder. Briefly: DREAMDD clinical study: Hamilton Depression Rating Scale (HAMD17). It counts as in vivo, human. As to the method:
The change from baseline to each double-blind, post-treatment visit in the HAM-D-17 score as well as the change from baseline to each double-blind, weekly, post-treatment assessments in the HAM-D-6 (Bech) scores and HAM-D-6 (Maier) scores was presented descriptively (n, mean, median, standard deviation, minimum, 25th percentile, median, 75th percentile, and maximum) by treatment. Treatment comparisons were performed at each assessed time point. The analysis compared the eszopiclone 3 mg group to placebo using an analysis of variance model (ANOVA) with treatment and site as fixed effects. The analysis was performed using the SAS MIXED procedure.
Hamilton Depression Rating Scale (HAM-D17): During this analysis, a medical professional evaluates the patient according to seventeen criteria by selecting the response that best characterizes the patient's behavior during the past week. The criteria and responses are based on that described in Br. J. Soc. Clin. Psychol. 6: 278-296 (1967) and are reproduced below. Question 1: Depressed mood (Sadness, hopeless, helpless, worthless); Response: 0—Absent, 1—These feeling states indicated only on questioning, 2—These feeling states spontaneously reported verbally, 3—Communicates feeling states non-verbally i.e., through facial expression, posture, voice, and tendency to weep, or 4—Patient report virtually only these feeling states in their spontaneous verbal and non-verbal communication. Question 2: Feeling of guilt; Response: 0—Absent, 1—Self reproach, feels they have let people down, 2—Ideas of guilt or rumination over past errors or sinful deeds, 3—Present illness is a punishment and/or has delusions of guilt, or 4—Hears accusatory or denunciatory voices and/or experiences threatening visual hallucinations. Question 3: Suicide; Response: 0—Absent, 1—Feels life is not worth living, 2—Wishes they were dead or any thoughts of possible death to self, 3—Suicide ideas or gesture, 4-Attempts at suicide (any serious attempt rates 4). Question 4: Insomnia early; Response: 0—No difficulty falling asleep; 1—Complains of occasional difficulty falling asleep—i.e., more than ½ hour; or 2—complains of nightly difficulty falling asleep. Question 5: Insomnia middle; Response: 0—No difficulty, 1—patient complains of being restless and disturbed during the night, or 2—Waking during the night—any getting out of bed rates 2 (except for purposes of voiding). Question 6: Insomnia Late; Response: 0—No difficulty, 1—Waking in early hours of the morning but goes back to sleep, or 2—Unable to fall asleep again if they get out of bed. […] Question 8: Retardation (Slowness of thought and speech; impaired ability to concentrate; decreased motor activity); Response: 0—Normal speech and thought, 1—Slight retardation at interview, 2—Obvious retardation at interview, 3—Interview difficult, or 4—Complete stupor. Question 9: Agitation; Response: 0—None; 1—Fidgetiness; 2—Playing with hands, hair, etc.; 3—Moving about, can't sit still; or 4—Hand wringing, nail biting, hair-pulling, biting of lips. Question 10: Anxiety psychic: 0—No difficulty, 1—Subjective tension and irritability, 2—Worrying about minor matters, 3—Apprehensive attitude apparent in face or speech, or 4—Fears expressed without questioning. Question 11: Anxiety somatic (Physiological concomitants of anxiety, such as:—Gastro-intestinal: dry mouth, wind, indigestion, diarrhea, cramps, belching.—Cardio-vascular: palpitations, headaches.—Respiratory: hyperventilation, sighing.—Urinary frequency—Sweating); Response: 0—Absent, 1—Mild, 2—Moderate, 3—Severe, or 4—Incapacitating. Question 12: Somatic symptoms gastro-intestinal; Response: 0—None, 1—Loss of appetite but eating without staff encouragement and/or heavy feelings in abdomen; or 2—Difficulty eating without staff urging and/or requests or requires laxatives or medication for bowels or medication for gastro-intestinal symptoms. […]

Structures are written as SMILES.

`CN1CCN(C(=O)OC2c3nccnc3C(=O)N2c2ccc(Cl)cn2)CC1` (single isomer, unassigned; (+)) [Eszopiclone, (+) 6-(5-chloro-2-pyridinyl)-6,7-dihydro-7-oxo-5H-pyrrolo[3,4b]pyrazin-5-yl 4-methylpiperazine-1-carboxylate]: the “HAMD 17 differences in patients with more severe depression (baseline HAMD 17≧22)” value (3 mg nightly + fluoxetine vs placebo) was “greater”. Also, the “changes in HAMD17 scores” value reads like this: (Week 4, p=0.02 vs placebo, 3 mg nightly + fluoxetine 20 mg QAM) −9.9; (Week 8, p<0.001 vs placebo, 3 mg nightly + fluoxetine) −13.8. Further, the “responders (50% decrease from baseline HAMD17)” value (Week 8, p<0.009 vs placebo, 3 mg nightly + fluoxetine) worked out at 74%. The “remitters (HAMD17≦7)” value (Week 8, p<0.02 vs placebo, 3 mg nightly + fluoxetine) amounted to 54%. Also, the “HAMD17 with removal of insomnia items, versus placebo” value (Week 8, p<0.03, 3 mg nightly + fluoxetine) is reported as “significant differences”. The “augmentation effect versus agents currently used for augmentation therapy, such as lithium” value (co-administration with fluoxetine) is “larger”. For the same molecule, the “augmentation effect by severity of depression” value (end of the 8 week treatment period) is listed as “most pronounced in the most severely depressed patients”.

The values above are taken from US8097625B2, “Combination of sedative and a neurotransmitter modulator, and methods for improving sleep quality and treating depression” (priority 2003, dated 2012).
